Results taken from patent publication US20230131899A1, “INHIBITORS OF MICROBIALLY INDUCED AMYLOID” (Axial Therapeutics, Inc., priority 2020, published 2023).
Where two headings read alike, the source gives them in different places.

Tests used:
E. coli CsgA = biological target: T1, E. coli CsgA (Escherichia coli, UniProt P28307); test: In vitro ThioflavinT assay of CsgA aggregation (CsgA ThT Assay); format: biochemical; settings: for remaining activity at 25 µM: compound 25 μM; for remaining activity at 100 µM: compound 100 μM
T1 construct: made in house; host or cells: E. coli NEB 3016 slyD::kan, pET11d
T1 sequence (P28307 23-151): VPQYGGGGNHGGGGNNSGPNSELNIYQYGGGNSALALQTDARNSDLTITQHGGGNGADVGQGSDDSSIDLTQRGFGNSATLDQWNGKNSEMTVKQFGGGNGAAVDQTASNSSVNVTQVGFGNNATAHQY
Outline: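 Purified C-terminal His-tagged CsgA, monomerised by desalting and 30-kDa filtration, at 2-20 μM with 20-40 μM ThT in 50 mM potassium phosphate pH 7.3, 1% DMSO, compounds 3.125-200 uM; room temperature, fluorescence (ex 438/em 495 nm) read every 15 min. Background-subtracted signal expressed as percent inhibition versus vehicle at 6-6.5 or 8-9 h, or as percent control AUC.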

human α-synuclein = biological target: T2, human α-synuclein (Homo sapiens, UniProt P37840); test: Cell-free Thioflavin T assay of α-synuclein aggregation (αSyn ThT Assay); format: biochemical; settings: αSyn 50 μM
T2 construct: the full-length gene for untagged human α-synuclein was inserted; made in house; host or cells: E. coli BL21(DE3), plasmid derived from pT7 or pET11a
Experimental: To assess the effects of compounds on aggregation of α-synuclein, a cell-free assay was performed using purified α-synuclein and Thioflavin T. In the assay, human α-synuclein was expressed in E. coli BL21(DE3) from a plasmid derived from pT7 or pET11a into which the full-length gene for untagged human α-synuclein was inserted. Cells were induced at OD600 0.6 with 0.8 mM IPTG for 4 hours, harvested by centrifugation and suspended in a volume of lysis buffer (10 mM Tris, pH 8.0, 1 mM EDTA, and 1 mM PMSF) equivalent to one-tenth the volume of culture and lysed by boiling for 20 minutes. Cell debris was pelleted by centrifugation, clarified lysate was treated with 10% streptomycin sulfate at 136 μL/mL followed by glacial acetic acid at 228 μL/mL, lysate was centrifuged, supernatant was transferred to a fresh tube and protein was precipitated via addition of an equal volume of saturated (100%) ammonium sulfate and incubated at 4° C. on a rocking shaker for 1 hour. The protein was pelleted via centrifugation and washed with an equal volume of 100 mM ammonium acetate in chilled ethanol, pelleted via centrifugation, washed twice with chilled ethanol, dried overnight, resuspended in 50 mM potassium phosphate buffer pH 7.3 or 10 mM Tris pH 7.4, and passed through a 50 kDa cut-off column. Immediately prior to use, the purified α-synuclein was filtered with a 0.2 μm nylon filter. The assay was conducted in 96-well black microplates with a single 1-2 mm glass bead in each well, 20-40 μM ThioflavinT, 1% DMSO, α-synuclein at 50 μM and compounds at 20-100 μM. Plates were sealed with sealing tape (ThermoFisher 232701), incubated at 37° C. in a Tecan Nano F200 plate reader with excitation at 438 nm using a 439 nm filter with a bandwidth of 8 nm, and emission at 495 nm with a 490 nm filter with a bandwidth of 10 nm. During the assay, plates were shaken continuously or were shaken for 999 seconds every 18 minutes. Readings were performed hourly for up to 73 hours. The effect of compounds on α-synuclein aggregation in the assay was determined with data at 36, 47, 48 or 72 hours or from the final timepoint of the assay, prior to or roughly near the time when ThT fluorescence plateaued in the vehicle control wells. The vehicle controls contained all components of the assay except compounds and represented the level of α-synuclein aggregation in the absence of an inhibitor or accelerator. Fluorescence values for each compound with α-synuclein were first adjusted by subtracting the average fluorescence of the compound in the absence of α-synuclein. These adjusted values were normalized by dividing them by the average fluorescence at the same timepoint in the vehicle control wells, and the average normalized fluorescence with the compound was expressed as a percentage of the average fluorescence observed in untreated controls. Percent inhibition of α-synuclein aggregation by a compound was determined by subtracting the percent average fluorescence with the compound relative to the average vehicle control from 100%. A higher positive percent inhibition reflects greater inhibition of α-synuclein aggregation, while a negative percent inhibition reflects potentiation of α-synuclein aggregation.
Alternate concentrations of Thioflavin T may be used in the assay and may affect the fluorescent signal and sensitivity of the assay. Alternate concentrations of α-synuclein may be used and such alterations may affect aggregation kinetics of α-synuclein in the assay. Alternate concentrations of compounds may be tested in the assay, and dose-responses may be evaluated. Additional reagents may be added to the assay which may affect aggregation kinetics of α-synuclein depending on their concentration, including detergents such as sodium dodecyl sulfate, sodium chloride, dithiotreitol, or bovine serum albumin. Shaking may be included at alternate intervals in the assay and may affect α-synuclein aggregation kinetics. […]

[1] = read-out: CsgA ThT Assay (10 μM CsgA) % Control AUC at 1005 minutes, 25 μM (activity range), CsgA 10 μM, black plates, 1005 minutes, class symbol
[2] = read-out: CsgA ThT Assay (10 μM CsgA) % Control AUC at 1005 minutes, 25 μM, mean AUC as % of DMSO control, CsgA 10 μM, black plates, 1005 minutes
[3] = read-out: CsgA ThT Assay (10 μM CsgA) % Control AUC at 1005 minutes, 100 μM (activity range), CsgA 10 μM, black plates, 1005 minutes, class symbol
[4] = read-out: CsgA ThT Assay (10 μM CsgA) % Control AUC at 1005 minutes, 100 μM, mean AUC as % of DMSO control, CsgA 10 μM, black plates, 1005 minutes
[5] = mean % inhibition of αSyn aggregation relative to DMSO control, compounds at 100 μM, read-out: αSyn ThT Assay % Inhibition
[6] = read-out: CsgA ThT Assay (2 μM CsgA) % Control Bmax 25 μM, activity range, class symbol, CsgA 2 μM, white plates
[7] = read-out: CsgA ThT Assay (2 μM CsgA) % Control Bmax 25 μM, mean Bmax as percentage of DMSO control, CsgA 2 μM, white plates
[8] = read-out: CsgA ThT Assay (2 μM CsgA) % Control Bmax 100 μM, activity range, class symbol, CsgA 2 μM, white plates
[9] = read-out: CsgA ThT Assay (2 μM CsgA) % Control Bmax 100 μM, mean Bmax as percentage of DMSO control, CsgA 2 μM, white plates
[10] = class symbol, compounds 100 μM, read-out: αSyn ThT Assay % inhibition, activity range
[11] = mean percent inhibition relative to DMSO control, compounds 100 μM, read-out: αSyn ThT Assay % inhibition
[12] = compounds at 100 μM, class symbol, read-out: αSyn ThT Assay % Inhibition (activity range)

| Compound | remaining activity at 25 µM (E. coli CsgA; [1]) [%] | remaining activity at 25 µM (E. coli CsgA; [2]) [%] | remaining activity at 100 µM (E. coli CsgA; [3]) [%] | remaining activity at 100 µM (E. coli CsgA; [4]) [%] | inhibition at 100 µM (human α-synuclein; [5]) [%] | αSyn ThT Assay % Inhibition (activity range) (human α-synuclein; compounds at 100 μM, class symbol) | remaining activity at 25 µM (E. coli CsgA; [6]) [%] | remaining activity at 25 µM (E. coli CsgA; [7]) [%] | remaining activity at 100 µM (E. coli CsgA; [8]) [%] | remaining activity at 100 µM (E. coli CsgA; [9]) [%] | inhibition at 100 µM (human α-synuclein; [10]) [%] | inhibition at 100 µM (human α-synuclein; [11]) [%] | inhibition at 100 µM (human α-synuclein; [12]) [%] |
| --- | --- | --- | --- | --- | --- | --- | --- | --- | --- | --- | --- | --- | --- |
| CN1CC(C(=O)O)n2c(c(-c3cccc(C(F)(F)F)c3)c(Cc3cccc4ccccc34)cc2=O)S1(=O)=O (single isomer, unassigned) [Compound 008a, 2-methyl-8-(naphthalen-1-ylmethyl)-6-oxo-9-(3-(trifluoromethyl)phenyl)-3,4-dihydro-2H,6H-pyrido[1,2-e][1,2,5]thiadiazine-4-carboxylic acid 1,1-dioxide] | > 60 | 71 | 31 to 60 | 38 | 16 | (+) ((+) represents 11 to 30) | – | – | – | – | – | – | – |
| CCCN1CC(C(=O)O)n2c(c(-c3cccc(C(F)(F)F)c3)c(Cc3cccc4ccccc34)c(N3CCCC3=O)c2=O)S1(=O)=O (stereo not shown) [Compound 151, 8-(naphthalen-1-ylmethyl)-6-oxo-7-(2-oxopyrrolidin-1-yl)-2-propyl-9-(3-(trifluoromethyl)phenyl)-3,4-dihydro-2H,6H-pyrido[1,2-e][1,2,5]thiadiazine-4-carboxylic acid 1,1-dioxide] | – | – | – | – | – | – | > 60 | 67 | > 60 | 73 | > 60 | 61 | – |
| CN1CC(C(=O)O)n2c(c(-c3cccc(C(F)(F)F)c3)c(Cc3ccc(NS(C)(=O)=O)c4ccccc34)cc2=O)S1(=O)=O (stereo not shown) [Compound 067] | > 60 | 67 | 11 to 31 | 16 | 35 | – | – | – | – | – | – | – | 31 to 60 |
| CC(C)NC(=O)c1c(Cc2cccc3ccccc23)c(-c2cccc(C(F)(F)F)c2)c2n(c1=O)C(C(=O)O)CN(C)S2(=O)=O (stereo not shown) [Compound 157, 7-(isopropylcarbamoyl)-2-methyl-8-(naphthalen-1-ylmethyl)-6-oxo-9-(3-(trifluoromethyl)phenyl)-3,4-dihydro-2H,6H-pyrido[1,2-e][1,2,5]thiadiazine-4-carboxylic acid 1,1-dioxide] | – | – | – | – | – | – | > 60 | 81 | > 60 | 124 | > 60 | 83 | – |
| O=C(O)c1csc2c(-c3cccc(C(F)(F)F)c3)c(Cc3cccc4ccccc34)cc(=O)n12 [Compound 019, 7-(naphthalen-1-ylmethyl)-5-oxo-8-(3-(trifluoromethyl)phenyl)-5H-thiazolo[3,2-a]pyridine-3-carboxylic acid] | > 60 | 69 | > 60 | 104 | 41 | – | – | – | – | – | – | – | 31 to 60 |
| O=C(O)C1CNS(=O)(=O)c2c(-c3cccc(C(F)(F)F)c3)c(Cc3cccc4ccccc34)c(NC3CCCC3)c(=O)n21 (stereo not shown) [Compound 005, 7-(cyclopentylamino)-8-(naphthalen-1-ylmethyl)-6-oxo-9-(3-(trifluoromethyl)phenyl)-3,4-dihydro-2H,6H-pyrido[1,2-e][1,2,5]thiadiazine-4-carboxylic acid 1,1-dioxide] | – | – | – | – | – | – | > 60 | 66 | 11 to 31 | 20 | 31 to 60 | 48 | – |
| CCCN1CC(C(=O)O)n2c(c(-c3cccc(C(F)(F)F)c3)c(Cc3cccc4ccccc34)c(OC3CCCC3)c2=O)S1(=O)=O (stereo not shown) [Compound 144, 7-(cyclopentyloxy)-8-(naphthalen-1-ylmethyl)-6-oxo-2-propyl-9-(3-(trifluoromethyl)phenyl)-3,4-dihydro-2H,6H-pyrido[1,2-e][1,2,5]thiadiazine-4-carboxylic acid 1,1-dioxide] | – | – | – | – | – | – | > 60 | 77 | – | – | 11 to 30 | 29 | – |
| CC(=O)Nc1ccc(Cc2cc(=O)n3c(c2-c2cccc(C(F)(F)F)c2)S(=O)(=O)N(C)CC3C(=O)O)c2ccccc12 (stereo not shown) [Compound 048] | > 60 | 90 | > 60 | 61 | 18 | – | – | – | – | – | – | – | 11 to 30 |
| Nc1c(Cc2cccc3ccccc23)c(-c2cccc(C(F)(F)F)c2)c2scc(C(=O)O)n2c1=O [Compound 050, 6-amino-7-(naphthalen-1-ylmethyl)-5-oxo-8-(3-(trifluoromethyl)phenyl)-5H-thiazolo[3,2-a]pyridine-3-carboxylic acid] | 31 to 60 | 36 | 11 to 31 | 22 | 49 | – | – | – | – | – | – | – | 31 to 60 |
| COc1cccc(CN2CC(C(=O)O)n3c2c(-c2cccc(C(F)(F)F)c2)c(Cc2cccc4ccccc24)c(Cl)c3=O)c1 (stereo not shown) [Compound 191, 6-chloro-1-(3-methoxybenzyl)-7-(naphthalen-1-ylmethyl)-5-oxo-8-(3-(trifluoromethyl)phenyl)-1,2,3,5-tetrahydroimidazo[1,2-a]pyridine-3-carboxylic acid] | – | – | – | – | – | – | 31 to 60 | 58 | 31 to 60 | 43 | 31 to 60 | 55 | – |
| O=C(O)CCCN1CC(C(=O)O)n2c(c(-c3cccc(C(F)(F)F)c3)c(Cc3cccc4ccccc34)cc2=O)S1(=O)=O (stereo not shown) [Compound 029, 2-(3-carboxypropyl)-8-(naphthalen-1-ylmethyl)-6-oxo-9-(3-(trifluoromethyl)phenyl)-3,4-dihydro-2H,6H-pyrido[1,2-e][1,2,5]thiadiazine-4-carboxylic acid 1,1-dioxide] | > 60 | 71 | 31 to 60 | 48 | -2 | – | – | – | – | – | – | – | -10 to 10 |
